# Measurements published in PubChem BioAssay (NCI).
#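 These data come from cells grown in 96-well plates and exposed to compound for 48 hours at five concentrations. TGI is the concentration that stops growth completely.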
# What was measured:
# Assay in all cases: growth of human tumour cells (NCI), 48 h
# NCI-H460 lung = test system: NCI-H460 lung
# UO-31 renal = test system: UO-31 renal
# NCI-H522 lung = test system: NCI-H522 lung
# SNB-75 CNS = test system: SNB-75 CNS
# HOP-62 NSCLC = test system: HOP-62 NSCLC
# OVCAR-8 ovarian = test system: OVCAR-8 ovarian
# OVCAR-4 ovarian = test system: OVCAR-4 ovarian
# SF-268 CNS = test system: SF-268 CNS
# DMS 273 small cell lung = test system: DMS 273 small cell lung
# HT29 colon = test system: HT29 colon
# COLO 205 colon = test system: COLO 205 colon
# NCI-H226 lung = test system: NCI-H226 lung
# TK-10 renal = test system: TK-10 renal
# K-562 leukemia = test system: K-562 leukemia
# NCI-H23 lung = test system: NCI-H23 lung
# DMS 114 small cell lung = test system: DMS 114 small cell lung
# LOX IMVI melanoma = test system: LOX IMVI melanoma
# KM20L2 colon = test system: KM20L2 colon
# HOP-92 NSCLC = test system: HOP-92 NSCLC
# EKVX NSCLC = test system: EKVX NSCLC
# HL-60(TB) leukemia = test system: HL-60(TB) leukemia
# SN12C renal = test system: SN12C renal
# U251 CNS = test system: U251 CNS
# HCT-116 colon = test system: HCT-116 colon
# A498 renal = test system: A498 renal
# M19-MEL melanoma = test system: M19-MEL melanoma
# CCRF-CEM leukemia = test system: CCRF-CEM leukemia
# SK-OV-3 ovarian = test system: SK-OV-3 ovarian
# HOP-18 NSCLC = test system: HOP-18 NSCLC
# OVCAR-5 ovarian = test system: OVCAR-5 ovarian
# M14 melanoma = test system: M14 melanoma
# RXF 393 renal = test system: RXF 393 renal
# MOLT-4 leukemia = test system: MOLT-4 leukemia
# SF-539 CNS = test system: SF-539 CNS
# A549 NSCLC = test system: A549 NSCLC
# SNB-19 CNS = test system: SNB-19 CNS
# SR leukemia = test system: SR leukemia
# UACC-257 melanoma = test system: UACC-257 melanoma
# RXF-631 renal = test system: RXF-631 renal
# SK-MEL-28 melanoma = test system: SK-MEL-28 melanoma
# SW-620 colon = test system: SW-620 colon
# DLD-1 colon = test system: DLD-1 colon
# IGROV1 ovarian = test system: IGROV1 ovarian
# KM12 colon = test system: KM12 colon
# SK-MEL-5 melanoma = test system: SK-MEL-5 melanoma
# HCT-15 colon = test system: HCT-15 colon
# UACC-62 melanoma = test system: UACC-62 melanoma
# HCC-2998 colon = test system: HCC-2998 colon
# CAKI-1 renal = test system: CAKI-1 renal
# SK-MEL-2 melanoma = test system: SK-MEL-2 melanoma
# 786-0 renal = test system: 786-0 renal
# LXFL 529 NSCLC = test system: LXFL 529 NSCLC
# ACHN renal = test system: ACHN renal
# SF-295 CNS = test system: SF-295 CNS
# MALME-3M melanoma = test system: MALME-3M melanoma
# RPMI-8226 leukemia = test system: RPMI-8226 leukemia
# OVCAR-3 ovarian = test system: OVCAR-3 ovarian
smiles,measurement,setting,value
CCN(C(=N)C#N)c1ccccc1,TGI,NCI-H460 lung,> 100 µM
same,TGI,UO-31 renal,> 100 µM
same,TGI,NCI-H522 lung,> 100 µM
same,TGI,SNB-75 CNS,> 100 µM
same,TGI,HOP-62 NSCLC,> 100 µM
same,TGI,OVCAR-8 ovarian,> 100 µM
same,TGI,OVCAR-4 ovarian,> 100 µM
same,TGI,SF-268 CNS,> 100 µM
same,TGI,DMS 273 small cell lung,> 58.3 µM
same,TGI,HT29 colon,> 100 µM
same,TGI,COLO 205 colon,> 100 µM
same,TGI,NCI-H226 lung,> 100 µM
same,TGI,TK-10 renal,> 100 µM
same,TGI,K-562 leukemia,> 100 µM
same,TGI,NCI-H23 lung,> 100 µM
same,TGI,DMS 114 small cell lung,> 88.2 µM
same,TGI,LOX IMVI melanoma,> 100 µM
same,TGI,KM20L2 colon,> 100 µM
same,TGI,HOP-92 NSCLC,> 100 µM
same,TGI,EKVX NSCLC,> 100 µM
same,TGI,HL-60(TB) leukemia,> 70.2 µM
same,TGI,SN12C renal,> 100 µM
same,TGI,U251 CNS,> 100 µM
same,TGI,HCT-116 colon,> 100 µM
same,TGI,A498 renal,> 100 µM
same,TGI,M19-MEL melanoma,> 95.4 µM
same,TGI,CCRF-CEM leukemia,> 85.1 µM
same,TGI,SK-OV-3 ovarian,> 100 µM
same,TGI,HOP-18 NSCLC,> 100 µM
same,TGI,OVCAR-5 ovarian,> 100 µM
same,TGI,M14 melanoma,> 100 µM
same,TGI,RXF 393 renal,> 100 µM
same,TGI,MOLT-4 leukemia,> 100 µM
same,TGI,SF-539 CNS,27.6 µM
same,TGI,A549 NSCLC,> 100 µM
same,TGI,SNB-19 CNS,> 100 µM
same,TGI,SR leukemia,> 100 µM
same,TGI,UACC-257 melanoma,> 100 µM
same,TGI,RXF-631 renal,> 100 µM
same,TGI,SK-MEL-28 melanoma,> 100 µM
same,TGI,SW-620 colon,> 49.8 µM
same,TGI,DLD-1 colon,> 65.6 µM
same,TGI,IGROV1 ovarian,> 100 µM
same,TGI,KM12 colon,> 100 µM
same,TGI,SK-MEL-5 melanoma,> 100 µM
same,TGI,HCT-15 colon,> 69.2 µM
same,TGI,UACC-62 melanoma,> 100 µM
same,TGI,HCC-2998 colon,> 100 µM
same,TGI,CAKI-1 renal,> 100 µM
same,TGI,SK-MEL-2 melanoma,> 100 µM
same,TGI,786-0 renal,> 60.3 µM
same,TGI,LXFL 529 NSCLC,> 100 µM
same,TGI,ACHN renal,> 100 µM
same,TGI,SF-295 CNS,> 100 µM
same,TGI,MALME-3M melanoma,> 100 µM
same,TGI,RPMI-8226 leukemia,> 100 µM
same,TGI,OVCAR-3 ovarian,> 100 µM
